The target of data set [1] is T1, Recombinant Human PDE IV Enzyme (HSPDE4A) (Homo sapiens, UniProt P27815).
T1 construct: made in house; host or cells: E. coli
As to the kind of experiment: Inhibition Test on Recombinant Human PDE IV Enzyme. The format is biochemical. The following applies: substrate [3H]cAMP 1 μmol/L. The method, then: Inhibition Test on Recombinant Human PDE IV Enzyme
Human phosphodiesterase cDNA (HSPDE4A) was isolated from testicles. Its predicted amino acid sequence is identical with the sequence (HSPDE4A5) reported by Bolger, G. et al. (Mol. Cell. Biol., 6558 (1993)) except that 223 amino acids have been deleted from the N-terminal thereof. This recombinant protein was expressed by an E. coli expression plasmid and then purified. The PDE activity was measured in the following 2-step process according to the method of Kincaid, R. and Manganiello, V. [Method. Enzymol., 159, 457 (1988)]. The substrate used was [^3H]cAMP (final concentration: 1 μmol/L), and the reaction was performed in a standard mixture containing N,N-bis(2-hydroxyethyl)-2-aminoethanesulfonic acid (50 mmol/L, pH 7.2), MgCl2 (1 mmol/L) and soybean trypsin inhibitor (0.1 mg/ml). The reaction was initiated by adding the enzyme thereto, and the mixture was incubated at 30° C. for 10 to 30 minutes. The reaction was quenched by hydrochloric acid, and the formed 5′-AMP was completely decomposed with […]. This sample was subjected to chromatography on DEAE-Sephadex A-25, and the eluted [^3H]adenosine was counted […] with a scintillation counter. The test compound was added after dissolved (concentration: 1.7%) in DMSO.

T1 sequence (P27815 224-886 limits assumed): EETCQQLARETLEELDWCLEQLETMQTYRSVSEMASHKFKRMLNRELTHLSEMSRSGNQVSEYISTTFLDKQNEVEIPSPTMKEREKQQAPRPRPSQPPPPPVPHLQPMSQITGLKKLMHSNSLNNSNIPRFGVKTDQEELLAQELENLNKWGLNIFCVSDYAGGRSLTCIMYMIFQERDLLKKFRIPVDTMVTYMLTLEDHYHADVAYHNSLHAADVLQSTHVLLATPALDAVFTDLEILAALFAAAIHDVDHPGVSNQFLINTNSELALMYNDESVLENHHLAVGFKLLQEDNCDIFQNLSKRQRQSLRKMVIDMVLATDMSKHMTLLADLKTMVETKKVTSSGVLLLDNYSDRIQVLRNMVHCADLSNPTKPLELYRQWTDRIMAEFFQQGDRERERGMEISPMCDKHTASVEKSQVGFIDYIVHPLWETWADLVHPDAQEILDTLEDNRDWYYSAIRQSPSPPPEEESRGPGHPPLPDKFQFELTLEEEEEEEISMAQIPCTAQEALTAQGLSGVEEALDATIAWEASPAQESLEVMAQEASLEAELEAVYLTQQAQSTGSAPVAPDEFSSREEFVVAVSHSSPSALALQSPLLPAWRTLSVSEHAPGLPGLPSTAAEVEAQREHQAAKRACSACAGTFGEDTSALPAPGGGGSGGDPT

With `COc1ccc(C2(C#N)CCC(C(=O)O)CC2)c2c1OCCO2` (stereo not drawn) [Compound 5, cis-4-Cyano-4-(8-methoxy-1,4-benzodioxan-5-yl)cyclohexanecarboxylic acid], the enzyme inhibitory activity entry in data set [1] is given as “over 87%”.

`COC=C1CCC(C#N)(c2ccc(OC)c3c2OCCO3)CC1` (stereo not drawn) [Compound 6, 1-(8-Methoxy-1,4-benzodioxan-5-yl)-4-methoxymethylenecyclohexane carbonitrile]: the melting point lay in the range of 112 to 113 °C.

For the compound `CCOC(=O)C=C1CCC(C#N)(c2ccc(OC)c3c2OCCO3)CC1` (stereo not drawn) [Compound 10, Ethyl 4-cyano-4-(8-methoxy-1,4-benzodioxan-5-yl)cyclohexanylideneacetate], the melting point fell in the range of 110 to 112 °C.

As to `COc1ccc(C2(C#N)CCC(=CC(=O)O)CC2)c2c1OCCO2` (stereo not drawn) [Compound 11, 4-Cyano-4-(8-methoxy-1,4-benzodioxan-5-yl)cyclohexanylideneacetic acid], the melting point lay within 203 to 204 °C.

Consider `COc1ccc(-c2cccc3c2COC3=O)c2c1OCCO2` [Compound 22, 4-(8-Methoxy-1,4-benzodioxan-5-yl)-1(3H)-isobenzofuranone], for which the melting point fell in the range of 158 to 160 °C.

For `COc1ccc(-c2ccc3c(c2)C(=O)NC3=O)c2c1OCCO2` [Compound 23, 4-(8-Methoxy-1,4-benzodioxan-5-yl)phthalimide], the melting point was in the range of 285 to 287 °C.

For orientation: melting point means the temperature of the solid-liquid transition.

The values are drawn from patent publication US6376535B2, “Oxygen-containing heterocyclic compounds” (Kyowa Hakko Kogyo Co., Ltd., priority 1998, dated 2002).
